Measured values as given in US12691112B2, “FGFR tyrosine kinase inhibitors for the treatment of urothelial carcinoma” (Janssen Pharmaceutica NV, priority 2019, dated 2026).

Test system: subjects with metastatic or surgically unresectable urothelial cancer
Conditions: all-causality; 10 mg intermittent, n = 33
Protocol: Study treatment was administered on 28-day cycles. […] Patients were randomized 1:1 to 28-day cycles to the following 2 regimens until a regimen was selected for further study: Regimen 1 (10 mg once daily intermittent (7 days on/7 days); Regimen 2 (6 mg once daily continuous). Randomization was stratified according to performance status (0 to 1 vs. 2), hemoglobin value (<10 vs. ≥10 g per dl), FGFR alteration type (mutation vs. fusion), prior treatment status (chemotherapy-resistant vs. chemotherapy naïve), and disease distribution (presence or absence of visceral [liver, lung, bone]metastases). Starting dose selection was based on phase 1 efficacy and tolerability.
Based on interim analysis and pharmacokinetic-pharmacodynamic modeling of serum phosphate levels, starting dose was increased to 8 mg per day continuous (Regimen 3). Thus, after interim analysis, this became a single-arm study. […] Treatment continued until disease progression or unacceptable adverse event(s) per investigator.
Safety was evaluated based on clinical laboratory tests, physical exams, electrocardiograms, and ophthalmology examinations. Adverse events and abnormalities were assessed by investigator and graded per NCI CTCAE v.4.0
Prophylactic measures were taken to minimize risk of common adverse events related to FGFR inhibition. To reduce risk of hyperphosphatemia, a low-phosphate diet was recommended for all patients (600 to 800 mg of dietary phosphate intake per day). To reduce the risk of skin effects, the application of alcohol-free emollient moisturizing cream and avoidance of unnecessary exposure to sunlight, soap, perfumed products, and hot baths was recommended. Patients were asked to keep their fingers and toes clean and nails trimmed to reduce risk of nail effects.
Additional ophthalmology examinations were performed if clinically indicated.

## COc1cc(OC)cc(N(CCNC(C)C)c2ccc3ncc(-c4cnn(C)c4)nc3c2)c1 [erdafitinib, N-(3,5-dimethoxy-phenyl)-N′-(1-methylethyl)-N-[3-(1-methyl-1H-pyrazol-4-yl)quinoxalin-6-yl]ethane-1,2-diamine]
  Decreased appetite, grade ≥ 3: 1 no.
  Diarrhea, any grade: 14 no.
  Diarrhea, grade 1: 7 no.
  Diarrhea, grade 2: 6 no.
  Diarrhea, grade ≥ 3: 1 no.
  Dry eye, any grade: 3 no.
  Dry eye, grade 1: 2 no.
  Dry eye, grade 2: 1 no.
  Dry eye, grade ≥ 3: 0 no.
  Dry mouth, any grade: 16 no.
  Dry mouth, grade 1: 15 no.
  Dry mouth, grade 2: 1 no.
  Dry mouth, grade ≥ 3: 0 no.
  Dry skin, any grade: 9 no.
  Dry skin, grade 1: 8 no.
  Dry skin, grade 2: 1 no.
  Dry skin, grade ≥ 3: 0 no.
  Dysgeusia, any grade: 10 no.
  Dysgeusia, grade 1: 7 no.
  Dysgeusia, grade 2: 3 no.
  Dysgeusia, grade ≥ 3: 0 no.
  Dyspepsia, any grade: 3 no.
  Dyspepsia, grade 1: 2 no.
  Dyspepsia, grade 2: 1 no.
  Dyspepsia, grade ≥ 3: 0 no.
  Dyspnea, any grade: 8 no.
  Dyspnea, grade 1: 3 no.
  Dyspnea, grade 2: 2 no.
  Dyspnea, grade ≥ 3: 3 no.
  Fatigue, any grade: 6 no.
  Fatigue, grade 1: 4 no.
  Fatigue, grade 2: 2 no.
  Fatigue, grade ≥ 3: 0 no.
  Hand-foot syndrome, any grade: 2 no.
  Hand-foot syndrome, grade 1: 0 no.
  Hand-foot syndrome, grade 2: 2 no.
  Hand-foot syndrome, grade ≥ 3: 0 no.
  Hematuria, any grade: 3 no.
  Hematuria, grade 1: 1 no.
  Hematuria, grade 2: 2 no.
  Hematuria, grade ≥ 3: 0 no.
  Hyperphosphatemia, any grade: 16 no.
  Hyperphosphatemia, grade 1: 15 no.
  Hyperphosphatemia, grade 2: 1 no.
  Hyperphosphatemia, grade ≥ 3: 0 no.
  Hypomagnesemia, any grade: 2 no.
  Hypomagnesemia, grade 1: 2 no.
  Hypomagnesemia, grade 2: 0 no.
  Hypomagnesemia, grade ≥ 3: 0 no.
  Hyponatremia, any grade: 2 no.
  Hyponatremia, grade 1: 0 no.
  Hyponatremia, grade 2: 0 no.
  Hyponatremia, grade ≥ 3: 2 no.
  Insomnia, any grade: 3 no.
  Insomnia, grade 1: 0 no.
  Insomnia, grade 2: 3 no.
  Insomnia, grade ≥ 3: 0 no.
  Lacrimation increased, any grade: 6 no.
  Lacrimation increased, grade 1: 5 no.
  Lacrimation increased, grade 2: 1 no.
  Lacrimation increased, grade ≥ 3: 0 no.
  Nail dystrophy, any grade: 2 no.
  Nail dystrophy, grade 1: 2 no.
  Nail dystrophy, grade 2: 0 no.
  Nail dystrophy, grade ≥ 3: 0 no.
  Nausea, any grade: 5 no.
  Nausea, grade 1: 3 no.
  Nausea, grade 2: 2 no.
  Nausea, grade ≥ 3: 0 no.
  Onycholysis, any grade: 7 no.
  Onycholysis, grade 1: 3 no.
  Onycholysis, grade 2: 3 no.
  Onycholysis, grade ≥ 3: 1 no.
  Onychomadesis, any grade: 1 no.
  Onychomadesis, grade 1: 1 no.
  Onychomadesis, grade 2: 0 no.
  Onychomadesis, grade ≥ 3: 0 no.
  Oropharyngeal pain, any grade: 0 no.
  Oropharyngeal pain, grade 1: 0 no.
  Oropharyngeal pain, grade 2: 0 no.
  Oropharyngeal pain, grade ≥ 3: 0 no.
  Pain in extremity, any grade: 5 no.
  Pain in extremity, grade 1: 3 no.
  Pain in extremity, grade 2: 1 no.
  Pain in extremity, grade ≥ 3: 1 no.
  Paronychia, any grade: 2 no.
